In ChEMBL document CHEMBL1201862, “PubChem BioAssay data set” (2004):
Calls of active or inactive are those of the source. Rule as the data show it, for most assays here: actives have a measured IC50 and inactives only a lower limit.

What was measured:
[1] = biological target: T1, Sentrin-specific protease 6 (Homo sapiens, UniProt Q9GZR1); type: functional;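 also: Luminescence-based dose-response confirmatory assay of SENP6 inhibition, following up an ultra-high-throughput screen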
T1 sequence (Q9GZR1 whole entry): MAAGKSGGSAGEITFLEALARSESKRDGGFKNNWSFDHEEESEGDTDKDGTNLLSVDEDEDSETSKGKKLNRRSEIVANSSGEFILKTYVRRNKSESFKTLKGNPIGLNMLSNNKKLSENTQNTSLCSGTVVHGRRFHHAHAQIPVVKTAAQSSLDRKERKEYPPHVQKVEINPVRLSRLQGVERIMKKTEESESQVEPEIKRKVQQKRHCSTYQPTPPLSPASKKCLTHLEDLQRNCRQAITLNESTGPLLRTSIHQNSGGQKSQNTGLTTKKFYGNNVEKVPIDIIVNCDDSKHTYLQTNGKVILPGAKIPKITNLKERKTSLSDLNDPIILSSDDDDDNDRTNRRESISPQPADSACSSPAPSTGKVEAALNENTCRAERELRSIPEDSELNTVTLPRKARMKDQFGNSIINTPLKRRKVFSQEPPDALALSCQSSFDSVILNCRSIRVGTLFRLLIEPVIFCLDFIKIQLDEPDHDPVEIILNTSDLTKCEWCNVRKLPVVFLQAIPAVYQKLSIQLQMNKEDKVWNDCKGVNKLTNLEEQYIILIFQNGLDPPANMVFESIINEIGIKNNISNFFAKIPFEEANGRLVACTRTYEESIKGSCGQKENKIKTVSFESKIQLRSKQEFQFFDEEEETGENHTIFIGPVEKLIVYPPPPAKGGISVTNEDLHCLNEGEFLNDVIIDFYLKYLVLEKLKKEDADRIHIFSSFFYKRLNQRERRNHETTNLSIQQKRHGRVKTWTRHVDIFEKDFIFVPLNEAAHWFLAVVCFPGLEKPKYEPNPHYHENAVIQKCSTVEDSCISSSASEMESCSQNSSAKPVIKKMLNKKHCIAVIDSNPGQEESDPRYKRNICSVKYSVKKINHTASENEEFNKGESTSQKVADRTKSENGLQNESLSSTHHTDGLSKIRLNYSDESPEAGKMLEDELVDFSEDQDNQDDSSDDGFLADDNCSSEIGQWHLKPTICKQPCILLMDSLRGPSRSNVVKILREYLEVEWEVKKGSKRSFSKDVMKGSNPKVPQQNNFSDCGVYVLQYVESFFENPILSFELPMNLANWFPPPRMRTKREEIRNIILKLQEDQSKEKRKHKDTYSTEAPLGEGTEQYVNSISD

[2] = biological target: T2, Sentrin-specific protease 7 (Homo sapiens, UniProt Q9BQF6); type: functional;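 also: Luminescence-based dose-response confirmation of ultra-high-throughput screening hits, measuring inhibition of SENP7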
T2 sequence (Q9BQF6 whole entry): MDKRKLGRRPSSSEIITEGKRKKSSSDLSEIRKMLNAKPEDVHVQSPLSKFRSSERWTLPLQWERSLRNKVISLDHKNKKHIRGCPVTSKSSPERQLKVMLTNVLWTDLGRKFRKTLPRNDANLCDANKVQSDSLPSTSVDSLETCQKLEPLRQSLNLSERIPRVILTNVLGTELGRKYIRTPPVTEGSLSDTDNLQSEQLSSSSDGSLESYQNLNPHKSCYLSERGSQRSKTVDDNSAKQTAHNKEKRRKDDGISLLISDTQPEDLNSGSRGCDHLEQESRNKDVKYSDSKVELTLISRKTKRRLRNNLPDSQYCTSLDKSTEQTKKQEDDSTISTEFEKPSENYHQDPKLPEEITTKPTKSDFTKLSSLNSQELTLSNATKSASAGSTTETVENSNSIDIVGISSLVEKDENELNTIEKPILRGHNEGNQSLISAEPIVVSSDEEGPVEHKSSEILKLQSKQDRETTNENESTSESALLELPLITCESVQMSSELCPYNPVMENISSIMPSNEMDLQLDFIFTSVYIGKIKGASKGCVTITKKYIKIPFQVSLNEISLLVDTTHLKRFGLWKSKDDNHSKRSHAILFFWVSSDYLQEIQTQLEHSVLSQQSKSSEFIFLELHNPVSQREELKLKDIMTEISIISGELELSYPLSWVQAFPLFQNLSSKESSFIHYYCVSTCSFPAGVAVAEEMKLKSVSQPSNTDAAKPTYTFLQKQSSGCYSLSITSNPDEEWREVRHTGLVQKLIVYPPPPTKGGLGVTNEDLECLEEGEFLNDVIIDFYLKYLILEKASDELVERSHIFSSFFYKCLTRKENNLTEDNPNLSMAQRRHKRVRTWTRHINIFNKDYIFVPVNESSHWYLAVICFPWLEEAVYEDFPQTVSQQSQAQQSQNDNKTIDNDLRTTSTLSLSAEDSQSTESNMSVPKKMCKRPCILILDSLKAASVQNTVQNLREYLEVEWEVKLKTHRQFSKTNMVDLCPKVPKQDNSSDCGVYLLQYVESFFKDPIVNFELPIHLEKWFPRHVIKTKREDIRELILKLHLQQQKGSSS

Bcl-2-related protein A1 = biological target: T3, Bcl-2-related protein A1 (Mus musculus, UniProt Q07440); experiment: small-molecule antagonists of Bfl-1/BH3 interaction – biochemical, TR-FRET, mouse Bfl-1, confirmation (AID 621);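 also: TR-FRET binding of GST-Bfl-1 to FITC-labelled Bid peptide via terbium antibody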
T3 sequence (Q07440 whole entry): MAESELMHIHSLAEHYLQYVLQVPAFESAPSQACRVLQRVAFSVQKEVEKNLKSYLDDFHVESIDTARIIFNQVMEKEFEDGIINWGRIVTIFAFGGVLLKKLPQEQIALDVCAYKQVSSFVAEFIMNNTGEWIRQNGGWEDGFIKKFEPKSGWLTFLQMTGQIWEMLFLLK

[3] = biological target: T4, Mannose-6-phosphate isomerase (Homo sapiens, UniProt P34949); experiment: MPI inhibition at elevated mannose 6-phosphate – biochemical, fluorescence intensity, high mannose 6-phosphate, primary screen (AID 1220)
T4 sequence (P34949 whole entry): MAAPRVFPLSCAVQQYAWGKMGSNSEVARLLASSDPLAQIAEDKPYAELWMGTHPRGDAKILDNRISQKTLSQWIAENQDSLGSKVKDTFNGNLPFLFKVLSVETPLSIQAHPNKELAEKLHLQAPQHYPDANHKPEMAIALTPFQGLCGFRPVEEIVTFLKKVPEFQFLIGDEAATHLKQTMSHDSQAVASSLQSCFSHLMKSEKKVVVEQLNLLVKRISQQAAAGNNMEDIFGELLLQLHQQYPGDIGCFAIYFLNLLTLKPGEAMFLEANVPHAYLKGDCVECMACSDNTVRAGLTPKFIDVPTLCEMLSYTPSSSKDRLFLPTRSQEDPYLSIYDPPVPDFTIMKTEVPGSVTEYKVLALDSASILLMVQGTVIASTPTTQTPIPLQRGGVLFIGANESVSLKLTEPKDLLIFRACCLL

Nonstructural protein 1 = Nonstructural protein 1 (Influenza A virus, UniProt Q194T2); type: functional, Influenza A virus (A/California/07/2009(H1N1))
Large T antigen = Large T antigen (Simian virus 40, UniProt P03070); type: functional, Betapolyomavirus macacae;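 also: Confirmatory-stage PubChem screen for compounds that inhibit SV40 T antigen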
Chain of Large T antigen (P03070 whole entry): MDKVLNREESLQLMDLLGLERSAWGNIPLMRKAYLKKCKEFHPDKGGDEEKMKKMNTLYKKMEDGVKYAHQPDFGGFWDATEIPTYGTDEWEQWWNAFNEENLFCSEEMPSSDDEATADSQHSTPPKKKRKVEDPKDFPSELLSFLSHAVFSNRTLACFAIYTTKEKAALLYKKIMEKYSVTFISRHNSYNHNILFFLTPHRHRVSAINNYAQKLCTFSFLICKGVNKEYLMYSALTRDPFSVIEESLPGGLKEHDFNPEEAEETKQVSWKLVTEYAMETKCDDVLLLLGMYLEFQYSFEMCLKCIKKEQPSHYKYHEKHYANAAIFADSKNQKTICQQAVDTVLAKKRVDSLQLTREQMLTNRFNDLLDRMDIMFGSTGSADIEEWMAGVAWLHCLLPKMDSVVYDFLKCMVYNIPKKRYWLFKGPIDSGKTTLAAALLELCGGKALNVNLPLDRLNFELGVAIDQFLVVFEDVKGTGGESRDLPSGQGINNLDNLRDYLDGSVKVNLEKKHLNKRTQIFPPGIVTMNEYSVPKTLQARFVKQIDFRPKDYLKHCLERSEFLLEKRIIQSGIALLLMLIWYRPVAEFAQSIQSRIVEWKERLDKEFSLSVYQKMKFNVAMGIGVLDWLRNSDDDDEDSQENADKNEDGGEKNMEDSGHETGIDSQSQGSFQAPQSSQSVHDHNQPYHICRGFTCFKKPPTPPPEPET

Chain of Nonstructural protein 1 (Q194T2 whole entry): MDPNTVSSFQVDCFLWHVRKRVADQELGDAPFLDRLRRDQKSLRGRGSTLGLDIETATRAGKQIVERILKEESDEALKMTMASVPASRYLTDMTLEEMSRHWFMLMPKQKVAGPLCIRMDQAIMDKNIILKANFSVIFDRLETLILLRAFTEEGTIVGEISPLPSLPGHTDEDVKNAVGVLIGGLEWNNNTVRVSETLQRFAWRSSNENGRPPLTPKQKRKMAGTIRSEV

SMILES | IC50 [1] | IC50 [2] | IC50 (Bcl-2-related protein A1) | IC50 [3] | IC50 (Nonstructural protein 1) | IC50 (Large T antigen)
Oc1nc(Nc2ccccc2)cc2ccccc12 | 0.345 µM (active) | 0.75 µM (active) | > 100 µM (not active) | – | – | –
COc1cc(OC)c(-c2c3cc(O)c(=O)cc-3oc3cc(O)c(O)cc23)cc1OC | – | – | – | > 50 µM (not active) | 41.7 µM (active) | 1.73 µM (active)
